From patent US20100298377A1, “NOVEL SUBSTITUTED INDAZOLES, THE PREPARATION THEREOF AND USE OF SAME IN THERAPEUTICS” (SANOFI-AVENTIS, priority 2007, published 2010)

Columns and labels:
[1] = biological target: AKT1 (Homo sapiens, UniProt P31749, S473D); assay: Determination of the IC50 for AKT1 (HTRF); assay type: biochemical; conditions: AKT1 without PH domain, activated by PDK1
In short: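 HTRF assay of AKT1 (S473D) kinase activity on a biotinylated peptide substrate, with 100 μM ATP and 10 μM peptide in the initiating solution.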

[2] = biological target: T1, Human S6K1 (24-421) T412E protein (Homo sapiens, UniProt P23443, T412E); assay: Determination of the IC50 for S6K1 (HTRF substrate phosphorylation test); assay type: biochemical; conditions: S6K1 activated by PDK1, ATP 30 μM
T1 construct: Human S6K1 (24-421) T412E protein; made in house; host or cells: Sf21 insect cells
Protocol: Determination of the IC50 for S6K1
The inhibitory potential of the compounds for S6K1 is evaluated in an enzymatic test of phosphorylation of substrate in HTRF (Homogenous Time-Resolved Fluorescence) format. Human S6K1 (24-421) T412E protein is expressed in sf21 cells and purified by chromatography on a nickel chelate column. It is activated by PDK1.
The test comprises two steps, both performed at RT. The phosphorylation reaction takes place during the first step and the revelation step is performed during the second. […] The final concentrations of compounds thus obtained during the incubation period range from 10 μM to 0.17 nM and the concentration of enzyme is 2 nM. After incubation for 20 minutes, the reaction is stopped and the revelation initiated by addition of 30 μl of a mixture of streptavidin XL 665 Xlent, ref. 611SAXLB Cis bio international, and a europium cryptate-coupled anti-phospho-GSK3 antibody, ref. 64CUSKAZ Cis bio international, dissolved in the revelation buffer (HEPES/NaOH 166.7 mM, EDTA 221.7 mM, KF 667.7 mM, BSA 0.167%, pH 7.0). The reaction takes place in a black half-well plate ref. 3694 Costar.
A mixture of the reaction medium after each addition of reagent is obtained by agitation for a few minutes at 700-1000 rpm on a Heidolph Titramax 100 machine. The reading is taken on a TECAN Ultra Evolution machine after at least one night and up to 3 nights at 4° C. The reading settings are as follows: excitation wavelength 320 nm, emission wavelengths 620 and 665 nm, lag time 150 μs, integration time 500 μs.
For each point, the ΔF % is calculated as follows:
R(Ratio)=counts665 nm/counts620 nm
The IC50 values are calculated by means of the XLfit4 205 equation.

[3] = system: MIA PaCa-2 cells (human pancreatic carcinoma cells); assay: Proliferation of MIA PaCa-2 cells, intracellular ATP, CellTiter-Glo test; assay type: cell-based; conditions: 96 hours
Text: b. Study of the Proliferation of Human Tumoral MIA PaCa-2, C-433, LnCaP and MCF7 Cells via Assay of the Intracellular ATP Using the Celltiter-Glo™ Test
The kit CellTiter-Glo™ for measuring cell viability via luminescence ([…]) is a homogeneous method for determining the number of viable cells in culture, based on quantification of the ATP present in the cells, and which indicates the presence of metabolically active cells.
The cell lines used in this test were the following: MIA PaCa-2 cells (human pancreatic carcinoma cells, ATCC, CRL-1420), C-433 cells (human Ewing sarcoma cells, DSMZ, ACC 268), LNCaP clone FGC cells (human prostate carcinoma cells, ATCC, CRL-1740), MCF7 cells (human breast carcinoma cells, ECACC, #86012803). The cells MIAPaCa-2 and LNCaP were cultured in D-MEM culture medium (Invitrogen Gibco, #419656-039) containing 10% foetal calf serum (FCS, Invitrogen Gibco, #10500-064) and 2 mM L-Glutamine (Invitrogen Gibco, #25030-024); the C-433 cells were cultured in MCCoy's 5A culture medium (Invitrogen Gibco, #26600-023)/RPMI 1640 (Invitrogen Gibco, #31870-025) (50/50) containing 10% FCS and 2 mM L-glutamine; the MCF7 cells were cultured in EMEM culture medium (EMEM, Biowhittaker, Lonza, #BE12-662F) containing 10% FCS and 2 mM L-Glutamine.
Evaluation of the Cell Viability via Luminescence Measurement: Celltiter-Glo™ Test
On day 1, the cells were inoculated at 1000 (C-433), 2500 (MCF7) and 10000 (LNCaP and MIA PaCa-2) cells per well in black-bottomed 96-well microplates (NUNC fluoronunc, Fisherbioblock 2311K) in 135 μl of whole culture medium and incubated at 37° C., 5% CO2, for 3 to 6 hours. The cells were then incubated with increasing concentrations of molecules diluted in dimethyl sulfoxide (DMSO, Sigma D2650). The molecules were added in a volume of 15 μl of a 10-fold concentrated solution in a final volume of 150 μl, the final percentage of DMSO being 0.1%. The cells were incubated at 37° C., 5% CO2, for 96 hours. After 4 days of treatment with the molecules, the CellTiter-Glo™ was performed by following the manufacturer's instructions (Kit Celltiter-Glo Luminescent, PROMEGA #G7571). Briefly, the cell plates were equilibrated for about 30 minutes at RT and 100 μl per well of Celltiter-Glo reagent were added. The cells were incubated for 1 hour at RT for lysis of the cells and stabilization of the signal. The intracellular ATP was quantified by measuring the luminescence in rlu units (relative luminescence units), 96 hours after initiation of the treatment, using a luminescence counter (Wallac). The tests were performed in six replicates.
i) the mean±s.e.m. of each series of well replicates was calculated;
ii) the maximum response is given by positive control wells containing untreated cells; this control was performed in 12 replicates;
iii) the minimum response is given by cell-free and untreated negative control wells; this control was performed in 6 replicates;
iv) using these maximum (100%) and minimum (0%) response values, respectively, the data were normalized to give a percentage relative to the maximum response;
The IC50 values were calculated by […] with the XLfit software (IDBS, UK) using formula 205.

T1 sequence (P23443 24-421 T412E): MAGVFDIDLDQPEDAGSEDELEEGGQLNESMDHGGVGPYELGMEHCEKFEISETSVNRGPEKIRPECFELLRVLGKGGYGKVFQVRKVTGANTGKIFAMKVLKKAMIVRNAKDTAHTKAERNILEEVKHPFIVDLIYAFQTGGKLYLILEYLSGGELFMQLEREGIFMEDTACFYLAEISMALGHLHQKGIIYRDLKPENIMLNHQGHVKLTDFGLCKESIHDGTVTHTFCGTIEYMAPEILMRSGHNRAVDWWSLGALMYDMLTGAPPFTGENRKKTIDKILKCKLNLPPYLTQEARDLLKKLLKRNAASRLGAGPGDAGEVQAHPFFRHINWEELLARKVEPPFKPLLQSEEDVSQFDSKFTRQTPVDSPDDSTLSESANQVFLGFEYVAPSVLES
AKT1, sequence (P31749 118-480 S473D limits assumed): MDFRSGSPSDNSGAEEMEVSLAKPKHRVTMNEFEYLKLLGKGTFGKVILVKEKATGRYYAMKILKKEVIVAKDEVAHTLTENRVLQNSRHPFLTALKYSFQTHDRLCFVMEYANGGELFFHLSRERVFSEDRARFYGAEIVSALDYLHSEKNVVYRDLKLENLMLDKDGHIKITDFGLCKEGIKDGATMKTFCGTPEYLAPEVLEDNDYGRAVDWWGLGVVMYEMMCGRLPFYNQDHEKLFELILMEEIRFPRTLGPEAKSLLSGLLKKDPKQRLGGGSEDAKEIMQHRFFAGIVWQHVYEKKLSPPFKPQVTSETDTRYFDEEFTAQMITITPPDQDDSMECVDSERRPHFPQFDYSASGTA

IC50 [1]	IC50 [2]	IC50 [3]	Structure (SMILES)
< 100 nM	100 to 500 nM	10000 nM	O=C(Nc1ccc2[nH]ncc2c1)N[C@@H](c1cc(F)cc(Cl)c1)[C@@H]1CCCCN1 [Ex 3, 1-{(S)-(3-Chloro-5-fluorophenyl)[(2S)-piperid-2-yl]methyl}-3-(1H-indazol-5-yl)urea]
< 100 nM	100 to 500 nM	3420 nM	O=C(Nc1ccc2[nH]ncc2c1)N[C@@H](c1ccc(Cl)c(Cl)c1)[C@@H]1CCCCN1 [Ex 4, 1-{(S)-(3,4-Dichlorophenyl)[(2S)-piperid-2-yl]methyl}-3-(1H-indazol-5-yl)urea]
< 100 nM	100 to 500 nM	7100 nM	O=C(Nc1ccc2[nH]ncc2c1)NC(c1cc(F)cc(Cl)c1)C1CCCCN1 (centres unmarked) [Ex 5, 1-[(3-Chloro-5-fluorophenyl)(piperid-2-yl)methyl]-3-(1H-indazol-5-yl)urea]
< 100 nM	500 to 2000 nM	> 10000 nM	CN1CCCCC1C(NC(=O)Nc1ccc2[nH]ncc2c1)c1cc(F)cc(Cl)c1 (centres unmarked) [Ex 11, 1-[(3-Chloro-5-fluorophenyl)(1-methylpiperid-2-yl)methyl]-3-(1H-indazol-5-yl)urea]
100 to 500 nM	500 to 2000 nM	1450 nM	CN1CCCCC1C(NC(=O)Nc1ccc2[nH]nc(-c3ccncc3)c2c1)c1ccccc1 [Ex 13, 1-[(1-Methylpiperid-2-yl)(phenyl)methyl]-3-(3-pyrid-4-yl-1H-indazol-5-yl)urea((S,2S),(R,2R))]
< 100 nM	500 to 2000 nM	6100 nM	Cc1n[nH]c2ccc(NC(=O)NC(c3ccccc3)C3CCCCN3C)cc12 [Ex 18, 3-Methyl-5-({[(1-methylpiperid-2-yl)(phenyl)methyl]carbamoyl}amino)-1H-indazole ((S,2S),(R,2R))]
100 to 500 nM	500 to 2000 nM	–	CN1CCCCC1C(NC(=O)Nc1cc(F)c2[nH]ncc2c1)c1ccccc1 [Ex 21, 1-(7-Fluoro-1H-indazol-5-yl)-3-[(1-methylpiperid-2-yl)(phenyl)methyl]urea((S,2S),(R,2R))]
< 100 nM	100 to 500 nM	1300 nM	CN1CCCCC1C(NC(=O)Nc1ccc2[nH]nc(C#Cc3ccc(F)cc3)c2c1)c1ccccc1 [Ex 24, 1-{3-[(4-Fluorophenyl)ethynyl]-1H-indazol-5-yl}-3-[(1-methylpiperid-2-yl)(phenyl)methyl]urea((S,2S),(R,2R))]
< 100 nM	100 to 500 nM	–	CN1CCCCC1C(NC(=O)Nc1ccc2[nH]nc(C#Cc3cccnc3)c2c1)c1ccccc1 [Ex 25, 1-[(1-Methylpiperid-2-yl)(phenyl)methyl]-3-[3-(pyrid-3-ylethynyl)-1H-indazol-5-yl]urea((S,2S),(R,2R))]
< 100 nM	100 to 500 nM	6250 nM	S=C(Nc1ccc2[nH]ncc2c1)N[C@@H](c1ccc(Cl)c(Cl)c1)[C@@H]1CCCCN1 [Ex 31, 1-{(S)-(3,4-Dichlorophenyl)[(2S)-piperid-2-yl]methyl}-3-(1H-indazol-5-yl)thiourea]
< 100 nM	500 to 2000 nM	2910 nM	O=C(Nc1ccc2[nH]ncc2c1)OC(c1cc(Cl)cc(Cl)c1)C1CCCCN1 [Ex 34, (3,5-Dichlorophenyl)[piperid-2-yl]methyl 1H-indazol-5-ylcarbamate((S,2S),(R,2R))]
< 100 nM	100 to 500 nM	3100 nM	O=C(Nc1ccc2[nH]ncc2c1)O[C@@H](c1cc(F)cc(Cl)c1)[C@@H]1CCCCN1 [Ex 35, (S)-(3-Chloro-5-fluorophenyl)[(2S)-piperid-2-yl]methyl 1H-indazol-5-ylcarbamate]
< 100 nM	500 to 2000 nM	10000 nM	CN1CCCCC1C(OC(=O)Nc1ccc2[nH]ncc2c1)c1cc(F)cc(Cl)c1 (centres unmarked) [Ex 36, (3-Chloro-5-fluorophenyl)(1-methylpiperid-2-yl)methyl 1H-indazol-5-ylcarbamate]
< 100 nM	100 to 500 nM	2450 nM	O=C(Nc1ccc2[nH]ncc2c1)O[C@H](c1ccc(Cl)c(Cl)c1)[C@H]1CCCCN1 [Ex 37, (R)-(3,4-Dichlorophenyl)[(2R)-piperid-2-yl]methyl 1H-indazol-5-ylcarbamate]
< 100 nM	100 to 500 nM	–	O=C(Nc1ccc2[nH]ncc2c1)O[C@@H](c1ccc(Cl)c(Cl)c1)[C@@H]1CCCCN1 [Ex 38b, (S)-(3,4-Dichlorophenyl)[(2S)-piperid-2-yl]methyl 1H-indazol-5-ylcarbamate]
< 100 nM	100 to 500 nM	–	O=C(Nc1ccc2[nH]ncc2c1)O[C@@H](c1cccc(Br)c1)[C@@H]1CCCCN1 [Ex 46]
